Measured values reported in patent EP3995135B1, “PROLONGED RELEASE DOSAGE FORM OF […]-(+)- TARTARIC ACID SALT” (Grünenthal GmbH, priority 2020, dated 2022).
Counter-ions that a name gives are not always drawn.

How the values were obtained:
[1] = Thermodynamic solubility (saturation solubility, HPLC quantification as free base); format: physicochemical; settings: for Thermodynamische Löslichkeit, Assay ausgedrückt als Base: 24 h at 25°C; for pH Ende: pH of the solution at the end (24 h, 25°C); for pH Start: pH of the solution at the start
Description: Die thermodynamische Löslichkeit von Tapentadolhydrochlorid und des Salzes von Tapentadol mit L-(+)-Weinsäure wurde als Sättigungslöslichkeit in verschiedenen Medien bei verschiedenen pH-Werten bestimmt. Die Lösungen wurden 24 Stunden bei 25°C gerührt und die pH-Werte der Lösungen zu Beginn und am Ende der Experimente wurden gemessen. Die gelöste Menge an Tapentadol wurde durch HPLC quantifiziert (freie Base von Tapentadol). Die experimentellen Ergebnisse sind in der Tabelle unten zusammengestellt: […]

[2] = Intrinsic dissolution (dissolution rate) of compressed salt samples in a Wood apparatus; format: physicochemical; settings: 37°C, 900 ml, 50 U/min
Description: 100 mg Tapentadol, entweder in Form des Hydrochloridsalzes oder des Salzes mit L-(+)-Weinsäure wurden mit einer Presskraft von 200 kg (gravitativ) bei einer Oberfläche von 0,5 cm^2 1 Minute verpresst. Die so erhaltenen verpressten Proben wurden in einem Wood-Apparat bei 37°C in 900 ml Auflösungsmedium bei verschiedenen pH-Werten und einer Paddeldrehgeschwindigkeit von 50 U/min auf ihre Auflösungsrate untersucht.

## CC[C@@H](c1cccc(O)c1)[C@@H](C)CN(C)C [Salz von Tapentadol mit L-(+)-Weinsäure, (-)-(1R,2R)-3-(3-Dimethylamino-1-ethyl-2-methylpropyl)phenol]
[1]; medium 0,1 M HCl
  Thermodynamische Löslichkeit, Assay ausgedrückt als Base: 26,7 g/100 ml
  pH Ende: 3,39
  pH Start: 1,15
[1]; medium Acetat pH 4,5
  Thermodynamische Löslichkeit, Assay ausgedrückt als Base: 26,6 g/100 ml
  pH Ende: 3,53
  pH Start: 4,51
[1]; medium Phosphat pH 7,4
  Thermodynamische Löslichkeit, Assay ausgedrückt als Base: 12,9 g/100 ml
  pH Ende: 3,56
  pH Start: 7,53
[1]; medium SIF sp pH 6,8
  Thermodynamische Löslichkeit, Assay ausgedrückt als Base: 12,6 g/100 ml
  pH Ende: 3,55
  pH Start: 6,83
[1]; medium Wasser
  Thermodynamische Löslichkeit, Assay ausgedrückt als Base: 26,4 g/100 ml
  pH Ende: 3,38
  pH Start: 6,19
[2]; pH 1,0, 0 min
  intrinsische Auflösung (Auflösungsrate): 0%
[2]; pH 1,0, 1 min
  intrinsische Auflösung (Auflösungsrate): 19%
[2]; pH 1,0, 3 min
  intrinsische Auflösung (Auflösungsrate): 51%
[2]; pH 1,0, 5 min
  intrinsische Auflösung (Auflösungsrate): 77%
[2]; pH 4,5, 0 min
  intrinsische Auflösung (Auflösungsrate): 0%
[2]; pH 4,5, 1 min
  intrinsische Auflösung (Auflösungsrate): 20%
[2]; pH 4,5, 3 min
  intrinsische Auflösung (Auflösungsrate): 51%
[2]; pH 4,5, 5 min
  intrinsische Auflösung (Auflösungsrate): 77%
[2]; pH 6,8, 0 min
  intrinsische Auflösung (Auflösungsrate): 0%
[2]; pH 6,8, 1 min
  intrinsische Auflösung (Auflösungsrate): 19%
[2]; pH 6,8, 3 min
  intrinsische Auflösung (Auflösungsrate): 44%
[2]; pH 6,8, 5 min
  intrinsische Auflösung (Auflösungsrate): 67%
[2]; pH 7,4, 0 min
  intrinsische Auflösung (Auflösungsrate): 0%
[2]; pH 7,4, 1 min
  intrinsische Auflösung (Auflösungsrate): 18%
[2]; pH 7,4, 3 min
  intrinsische Auflösung (Auflösungsrate): 44%
[2]; pH 7,4, 5 min
  intrinsische Auflösung (Auflösungsrate): 65%

## CC[C@@H](c1cccc(O)c1)[C@@H](C)CN(C)C [Tapentadolhydrochlorid, (-)-(1R,2R)-3-(3-Dimethylamino-1-ethyl-2-methylpropyl)phenol, reference compound]
[1]; medium 0,1 M HCl
  Thermodynamische Löslichkeit, Assay ausgedrückt als Base: 31,2 g/100 ml
  pH Ende: 0,83
  pH Start: 1,11
[1]; medium Acetat pH 4,5
  Thermodynamische Löslichkeit, Assay ausgedrückt als Base: 32,7 g/100 ml
  pH Ende: 4,29
  pH Start: 4,54
[1]; medium Citrat pH 7.4
  Thermodynamische Löslichkeit, Assay ausgedrückt als Base: 31,9 g/100 ml
  pH Ende: 6,33
  pH Start: 7,39
[1]; medium SIF sp pH 6,8
  Thermodynamische Löslichkeit, Assay ausgedrückt als Base: 32,4 g/100 ml
  pH Ende: 6,23
  pH Start: 6,82
[1]; medium Wasser
  Thermodynamische Löslichkeit, Assay ausgedrückt als Base: 33,0 g/100 ml
  pH Ende: 4,63
[2]; pH 1,0, 0 min
  intrinsische Auflösung (Auflösungsrate): 0%
[2]; pH 1,0, 1 min
  intrinsische Auflösung (Auflösungsrate): 52%
[2]; pH 1,0, 3 min
  intrinsische Auflösung (Auflösungsrate): 95%
[2]; pH 1,0, 5 min
  intrinsische Auflösung (Auflösungsrate): 99%
[2]; pH 4,5, 0 min
  intrinsische Auflösung (Auflösungsrate): 0%
[2]; pH 4,5, 1 min
  intrinsische Auflösung (Auflösungsrate): 60%
[2]; pH 4,5, 3 min
  intrinsische Auflösung (Auflösungsrate): 91%
[2]; pH 4,5, 5 min
  intrinsische Auflösung (Auflösungsrate): 95%
[2]; pH 6,8, 0 min
  intrinsische Auflösung (Auflösungsrate): 0%
[2]; pH 6,8, 1 min
  intrinsische Auflösung (Auflösungsrate): 38%
[2]; pH 6,8, 3 min
  intrinsische Auflösung (Auflösungsrate): 79%
[2]; pH 6,8, 5 min
  intrinsische Auflösung (Auflösungsrate): 92%
[2]; pH 7,4, 0 min
  intrinsische Auflösung (Auflösungsrate): 0%
[2]; pH 7,4, 1 min
  intrinsische Auflösung (Auflösungsrate): 27%
[2]; pH 7,4, 3 min
  intrinsische Auflösung (Auflösungsrate): 65%
[2]; pH 7,4, 5 min
  intrinsische Auflösung (Auflösungsrate): 80%
